pIC50: −log10 of the molar value.
What follows are compounds tested against Cdk9/cyclinT1 (Homo sapiens, UniProt P50750) (assay: Cdk9/cyclinT1 kinase assay (IMAP or Alpha Screen protocol)).
Cdk9/cyclinT1, sequence (P50750 whole entry): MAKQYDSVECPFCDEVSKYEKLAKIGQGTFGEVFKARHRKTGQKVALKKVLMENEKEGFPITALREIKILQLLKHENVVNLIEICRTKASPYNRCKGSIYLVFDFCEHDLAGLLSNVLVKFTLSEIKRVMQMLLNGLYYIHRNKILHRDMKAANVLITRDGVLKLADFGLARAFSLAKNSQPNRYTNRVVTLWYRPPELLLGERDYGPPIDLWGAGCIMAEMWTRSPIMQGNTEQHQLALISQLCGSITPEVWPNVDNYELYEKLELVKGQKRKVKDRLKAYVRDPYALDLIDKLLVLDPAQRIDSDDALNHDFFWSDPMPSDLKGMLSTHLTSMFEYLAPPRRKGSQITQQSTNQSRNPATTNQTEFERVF
Cdk9/cyclinT1, sequence (O60563 whole entry partner): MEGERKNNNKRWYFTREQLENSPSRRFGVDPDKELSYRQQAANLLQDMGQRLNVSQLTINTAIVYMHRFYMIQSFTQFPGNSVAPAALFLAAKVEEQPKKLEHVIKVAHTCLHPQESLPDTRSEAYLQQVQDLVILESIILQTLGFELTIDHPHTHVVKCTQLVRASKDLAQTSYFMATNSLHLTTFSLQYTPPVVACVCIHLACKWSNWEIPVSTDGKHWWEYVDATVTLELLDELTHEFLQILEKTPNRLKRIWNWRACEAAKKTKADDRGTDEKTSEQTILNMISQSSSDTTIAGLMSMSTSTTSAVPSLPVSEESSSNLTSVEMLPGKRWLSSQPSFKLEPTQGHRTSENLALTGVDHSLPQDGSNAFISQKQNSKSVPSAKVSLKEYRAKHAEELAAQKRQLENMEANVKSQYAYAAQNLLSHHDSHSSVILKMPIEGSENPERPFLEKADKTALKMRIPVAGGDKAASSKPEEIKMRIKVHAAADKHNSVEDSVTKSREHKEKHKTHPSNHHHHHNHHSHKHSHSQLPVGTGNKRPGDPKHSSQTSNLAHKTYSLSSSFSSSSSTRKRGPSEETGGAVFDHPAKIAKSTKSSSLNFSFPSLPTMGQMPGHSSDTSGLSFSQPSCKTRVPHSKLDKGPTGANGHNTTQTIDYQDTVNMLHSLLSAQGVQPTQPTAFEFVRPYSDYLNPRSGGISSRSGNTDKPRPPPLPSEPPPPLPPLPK

| pIC50 | SMILES |
| --- | --- |
| > 8.10 | N[C@@H]1CC[C@@H](C(=O)Nc2cc(-c3cncc(NCC4CCOCC4)n3)c(Cl)cn2)C1 [Example 44, (1R,3R)-3-Amino-cyclopentanecarboxylic acid (5-chloro-4-{6-[(tetrahydro-pyran-4-ylmethyl)-amino]-pyrazin-2-yl}-pyridin-2-yl)-amide] |
| 6.89 | O=C(Nc1cc(-c2cncc(NCC3CCOCC3)n2)c(C(F)(F)F)cn1)[C@@H]1CCCNC1 [Example 61, (R)-Piperidine-3-carboxylic acid (4-{6-[(tetrahydro-pyran-4-ylmethyl)-amino]-pyrazin-2-yl}-5-trifluoromethyl-pyridin-2-yl)-amide] |
| > 8.10 | CC(C)OC(=O)N1CCC[C@H](C(=O)Nc2cc(-c3cncc(NCC4CCOCC4)n3)c(Cl)cn2)C1 [Example 46, (S)-3-(5-Chloro-4-{6-[(tetrahydro-pyran-4-ylmethyl)-amino]-pyrazin-2-yl}-pyridin-2-ylcarbamoyl)-piperidine-1-carboxylic acid isopropyl ester] |
| 7.43 | C[C@H](O)CNc1cncc(-c2cc(NC(=O)[C@@H]3CCCNC3)ncc2Cl)n1 [Example 29, (R)-Piperidine-3-carboxylic acid {5-chloro-4-[6-((S)-2-hydroxy-propylamino)-pyrazin-2-yl]-pyridin-2-yl}-amide] |
| > 8.10 | C[C@@H](Nc1cncc(-c2cc(NC(=O)[C@@H]3CCCNC3)ncc2Cl)n1)C1CCCCC1 [Example 37, (R)-Piperidine-3-carboxylic acid {5-chloro-4-[6-((R)-1-cyclohexyl-ethylamino)-pyrazin-2-yl]-pyridin-2-yl}-amide] |
| 8.05 | O=C(Nc1cc(-c2cncc(NCC3CCOCC3)n2)c(Cl)cn1)C1CCCOC1 (centres unmarked) [Example 23, Tetrahydro-pyran-3-carboxylic acid (5-chloro-4-{6-[(tetrahydro-pyran-4-ylmethyl)-amino]-pyrazin-2-yl}-pyridin-2-yl)-amide] |
| 6.64 | CCN1CCC[C@@H](C(=O)Nc2cc(-c3cncc(NCC4CCOCC4)n3)c(Cl)cn2)C1 [Example 7, (R)-1-Ethyl-piperidine-3-carboxylic acid (5-chloro-4-{6-[(tetrahydro-pyran-4-ylmethyl)-amino]-pyrazin-2-yl}-pyridin-2-yl)-amide] |
| > 8.10 | O=C(Nc1cc(-c2cncc(NCC3CCOCC3)n2)c(Cl)cn1)[C@H]1CNC[C@H]1F [Example 64, (3R,4S)-4-Fluoro-pyrrolidine-3-carboxylic acid (5-chloro-4-{6-[(tetrahydro-pyran-4-ylmethyl)-amino]-pyrazin-2-yl}-pyridin-2-yl)-amide] |
| 7.43 | O=C(Nc1cc(-c2cncc(NCC3CCOCC3)n2)c(Cl)cn1)[C@@H]1CCCN1 [Example 40, (S)-Pyrrolidine-2-carboxylic acid (5-chloro-4-{6-[(tetrahydro-pyran-4-ylmethyl)-amino]-pyrazin-2-yl}-pyridin-2-yl)-amide] |
| > 8.10 | CC(C)S(=O)(=O)N1CCC[C@H](C(=O)Nc2cc(-c3cncc(NCC4CCOCC4)n3)c(Cl)cn2)C1 [Example 56, (S)-1-(Propane-2-sulfonyl)-piperidine-3-carboxylic acid (5-chloro-4-{6-[(tetrahydro-pyran-4-ylmethyl)-amino]-pyrazin-2-yl}-pyridin-2-yl)-amide] |
| 7.55 | O=C(Nc1cc(-c2cncc(NCC3CCOCC3)n2)c(Cl)cn1)[C@H]1CCCNC1 [Example 8, (S)-Piperidine-3-carboxylic acid (5-chloro-4-{6-[(tetrahydro-pyran-4-ylmethyl)-amino]-pyrazin-2-yl}-pyridin-2-yl)-amide] |
| > 8.10 | CS(=O)(=O)N[C@@H]1CC[C@H](C(=O)Nc2cc(-c3cncc(NCC4CCOCC4)n3)c(Cl)cn2)C1 [Example 50, (1S,3R)-3-Methanesulfonylamino-cyclopentanecarboxylic acid (5-chloro-4-{6-[(tetrahydro-pyran-4-ylmethyl)-amino]-pyrazin-2-yl}-pyridin-2-yl)-amide] |
| > 8.10 | CC(C)C(=O)Nc1cc(-c2cncc(NCC3CCOCC3)n2)c(Cl)cn1 [Example 12, N-(5-Chloro-4-{6-[(tetrahydro-pyran-4-ylmethyl)-amino]-pyrazin-2-yl}-pyridin-2-yl)-isobutyramide] |
| 5.68 | O=C(Nc1cc(-c2cnccn2)c(Cl)cn1)[C@@H]1CCCNC1 [Example 1, (R)-Piperidine-3-carboxylic acid (5-chloro-4-pyrazin-2-yl-pyridin-2-yl)-amide] |
| > 8.10 | C[C@H](Nc1cncc(-c2cc(NC(=O)[C@@H]3CCCNC3)ncc2Cl)n1)C1CCCCC1 [Example 36, (R)-Piperidine-3-carboxylic acid {5-chloro-4-[6-((S)-1-cyclohexyl-ethylamino)-pyrazin-2-yl]-pyridin-2-yl}-amide] |
| > 8.10 | CS(=O)(=O)N1CCC[C@H](C(=O)Nc2cc(-c3cncc(NCC4CCOCC4)n3)c(Cl)cn2)C1 [Example 6] |

| pIC50 | SMILES |
| --- | --- |
| 6.88 | CC(C)S(=O)(=O)N1CCC[C@H](C(=O)Nc2cc(-c3cncc(NCC4CCOCC4)n3)c(C(F)(F)F)cn2)C1 [Example 67, (S)-1-(Propane-2-sulfonyl)-piperidine-3-carboxylic acid (4-{6-[(tetrahydro-pyran-4-ylmethyl)-amino]-pyrazin-2-yl}-5-trifluoromethyl-pyridin-2-yl)-amide] |
| > 8.10 | O=C(Nc1cc(-c2cncc(NCC3CCOCC3)n2)c(Cl)cn1)[C@@H]1CCNC1 [Example 41, (R)-Pyrrolidine-3-carboxylic acid (5-chloro-4-{6-[(tetrahydro-pyran-4-ylmethyl)-amino]-pyrazin-2-yl}-pyridin-2-yl)-amide] |
| > 8.10 | CS(=O)(=O)N[C@H]1CC[C@@H](C(=O)Nc2cc(-c3cncc(NCC4CCOCC4)n3)c(Cl)cn2)C1 [Example 51, (1R,3S)-3-Methanesulfonylamino-cyclopentanecarboxylic acid (5-chloro-4-{6-[(tetrahydro-pyran-4-ylmethyl)-amino]-pyrazin-2-yl}-pyridin-2-yl)-amide] |
| > 8.10 | O=C(Nc1cc(-c2cncc(NCC3CCOCC3)n2)c(Cl)cn1)[C@@H]1CCCNC1 [Example 9, (R)-Piperidine-3-carboxylic acid (5-chloro-4-{6-[(tetrahydro-pyran-4-ylmethyl)-amino]-pyrazin-2-yl}-pyridin-2-yl)-amide] |
| 7.77 | O=C(Nc1cc(-c2cncc(NCC3CC3)n2)c(Cl)cn1)[C@@H]1CCCNC1 [Example 39, (R)-Piperidine-3-carboxylic acid {5-chloro-4-[6-(cyclopropylmethyl-amino)-pyrazin-2-yl]-pyridin-2-yl}-amide] |
| > 8.10 | COC(=O)N[C@@H]1CC[C@@H](C(=O)Nc2cc(-c3cncc(NCC4CCOCC4)n3)c(Cl)cn2)C1 [Example 55, [(1R,3R)-3-(5-Chloro-4-{6-[(tetrahydro-pyran-4-ylmethyl)-amino]-pyrazin-2-yl}-pyridin-2-ylcarbamoyl)-cyclopentyl]-carbamic acid methyl ester] |
| 7.00 | CCS(=O)(=O)N1CCC[C@H](C(=O)Nc2cc(-c3cncc(NCC4CCOCC4)n3)c(C(F)(F)F)cn2)C1 [Example 66, (S)-1-Ethanesulfonyl-piperidine-3-carboxylic acid (4-{6-[(tetrahydro-pyran-4-ylmethyl)-amino]-pyrazin-2-yl}-5-trifluoromethyl-pyridin-2-yl)-amide] |
| 7.33 | COCCNc1cncc(-c2cc(NC(=O)[C@@H]3CCCNC3)ncc2Cl)n1 [Example 35, (R)-Piperidine-3-carboxylic acid {5-chloro-4-[6-(2-methoxy-ethylamino)-pyrazin-2-yl]-pyridin-2-yl}-amide] |
| 6.92 | O=C(Nc1cc(-c2cncc(NCc3ccccn3)n2)c(Cl)cn1)[C@@H]1CCCNC1 [Example 17, (R)-Piperidine-3-carboxylic acid (5-chloro-4-{6-[(pyridin-2-ylmethyl)-amino]-pyrazin-2-yl}-pyridin-2-yl)-amide] |
| > 8.10 | O=C(Nc1cc(-c2cncc(NCc3ccc(F)cc3)n2)c(Cl)cn1)[C@@H]1CCCNC1 [Example 20, (R)-Piperidine-3-carboxylic acid {5-chloro-4-[6-(4-fluoro-benzylamino)-pyrazin-2-yl]-pyridin-2-yl}-amide] |
| > 8.10 | O=C(Nc1cc(-c2cncc(NCC3CCCOC3)n2)c(Cl)cn1)[C@@H]1CCCNC1 (stereo partly drawn) [Example 26, (R)-Piperidine-3-carboxylic acid (5-chloro-4-{6-[(tetrahydro-pyran-3-ylmethyl)-amino]-pyrazin-2-yl}-pyridin-2-yl)-amide] |
| > 8.10 | Cc1ncc(NCC2CCOCC2)nc1-c1cc(NC(=O)[C@@H]2CCCNC2)ncc1Cl [Example 24, (R)-Piperidine-3-carboxylic acid (5-chloro-4-{3-methyl-6-[(tetrahydro-pyran-4-ylmethyl)-amino]-pyrazin-2-yl}-pyridin-2-yl)-amide] |
| > 8.10 | O=C(Nc1cc(-c2cncc(NCc3cccc(OC(F)F)c3)n2)c(Cl)cn1)[C@@H]1CCCNC1 [Example 18, (R)-Piperidine-3-carboxylic acid {5-chloro-4-[6-(3-difluoromethoxy-benzylamino)-pyrazin-2-yl]-pyridin-2-yl}-amide] |
| > 8.10 | CC(=O)N1CCC[C@H](C(=O)Nc2cc(-c3cncc(NCC4CCOCC4)n3)c(Cl)cn2)C1 [Example 48, (S)-1-Acetyl-piperidine-3-carboxylic acid (5-chloro-4-{6-[(tetrahydro-pyran-4-ylmethyl)-amino]-pyrazin-2-yl}-pyridin-2-yl)-amide] |
| > 8.10 | O=C(Nc1cc(-c2cncc(NCc3ccccc3F)n2)c(Cl)cn1)[C@@H]1CCCNC1 [Example 14, (R)-Piperidine-3-carboxylic acid {5-chloro-4-[6-(2-fluoro-benzylamino)-pyrazin-2-yl]-pyridin-2-yl}-amide] |
| 7.60 | N[C@@H]1CC[C@H](C(=O)Nc2cc(-c3cncc(NCC4CCOCC4)n3)c(Cl)cn2)C1 [Example 42, (1S,3R)-3-Amino-cyclopentanecarboxylic acid (5-chloro-4-{6-[(tetrahydro-pyran-4-ylmethyl)-amino]-pyrazin-2-yl}-pyridin-2-yl)-amide] |
